Columns and labels:
[1] = test system: Fibroblast growth factor receptor 3 (Homo sapiens), P22607 [V555M]; assay: Inhibition of FGFR3 V555M mutant (unknown origin) at 10 uM by radiometric kinase activity assay relative to control
[2] = test system: BaF3; assay: Antiproliferative activity against mouse BaF3 cells harboring TEL-FGFR3 assessed as cell growth inhibition by CellTiter-Glo assay; format: functional
[3] = test system: KMS-11; assay: Antiproliferative activity against human KMS-11 cells harboring FGFR3 Y373C mutant assessed as cell growth inhibition by CellTiter-Glo assay; format: functional
[4] = test system: Fibroblast growth factor receptor 2 (Homo sapiens), P21802 [V564F]; assay: Inhibition of FGFR2 V564F mutant (unknown origin) at 10 uM by radiometric kinase activity assay relative to control
[5] = test system: BaF3; assay: cells; format: functional; settings: Mus musculus
[6] = Antiproliferative activity against mouse BaF3 cells assessed as cell growth inhibition by CellTiter-Glo assay; settings: BaF3 cells
[7] = test system: AN3-CA; assay: Antiproliferative activity against human AN3-CA cells harboring FGFR2 K310R/N549K mutant assessed as cell growth inhibition by CellTiter-Glo assay; format: functional
[8] = test system: J82; assay: Antiproliferative activity against human J82 cells harboring FGFR3 K652E mutant assessed as cell growth inhibition by CellTiter-Glo assay; format: functional
[9] = biological target: Fibroblast growth factor receptor 3 (Homo sapiens, UniProt P22607); assay: Inhibition of wild-type FGFR3 (unknown origin) by radiometric kinase activity assay
[10] = test system: Fibroblast growth factor receptor 2 (Homo sapiens), P21802 [N549H]; assay: Inhibition of FGFR2 N549H mutant (unknown origin) at 10 uM by radiometric kinase activity assay relative to control
[11] = test system: BaF3; assay: Antiproliferative activity against mouse BaF3 cells harboring TEL-FGFR4 N535K mutant assessed as cell growth inhibition by CellTiter-Glo assay; format: functional
[12] = biological target: Fibroblast growth factor receptor 2 (Homo sapiens, UniProt P21802, V564F)
Description: Inhibition of FGFR2 V564F mutant (unknown origin) by radiometric kinase activity assay

[13] = biological target: Fibroblast growth factor receptor 3 (Homo sapiens, UniProt P22607, K650M)
[14] = biological target: CYP2C9 (Homo sapiens, UniProt P11712); assay: Inhibition of CYP2C9 (unknown origin) assessed as remaining activity at 10 uM relative to control; format: ADME; settings: read-out: Activity
[15] = biological target: Fibroblast growth factor receptor 3 (Homo sapiens, UniProt P22607, V555M)
[16] = biological target: CYP3A4 (Homo sapiens, UniProt P08684); assay: Inhibition of CYP3A4 (unknown origin) assessed as remaining activity at 10 uM relative to control; format: ADME; settings: read-out: Activity
[17] = Stability in dog liver microsomes assessed as parent compound remaining at 1 uM incubated for 30 mins; format: ADME, Canis lupus familiaris, Microsome; settings: read-out: Stability
[18] = biological target: Fibroblast growth factor receptor 2 (Homo sapiens, UniProt P21802); assay: Inhibition of wild-type FGFR2 (unknown origin) by radiometric kinase activity assay
[19] = biological target: T1, CYP1A2 (Homo sapiens, UniProt P05177); assay: Inhibition of CYP1A2 (unknown origin) assessed as remaining activity at 10 uM relative to control; format: ADME; settings: read-out: Activity
T1 sequence (P05177 whole entry): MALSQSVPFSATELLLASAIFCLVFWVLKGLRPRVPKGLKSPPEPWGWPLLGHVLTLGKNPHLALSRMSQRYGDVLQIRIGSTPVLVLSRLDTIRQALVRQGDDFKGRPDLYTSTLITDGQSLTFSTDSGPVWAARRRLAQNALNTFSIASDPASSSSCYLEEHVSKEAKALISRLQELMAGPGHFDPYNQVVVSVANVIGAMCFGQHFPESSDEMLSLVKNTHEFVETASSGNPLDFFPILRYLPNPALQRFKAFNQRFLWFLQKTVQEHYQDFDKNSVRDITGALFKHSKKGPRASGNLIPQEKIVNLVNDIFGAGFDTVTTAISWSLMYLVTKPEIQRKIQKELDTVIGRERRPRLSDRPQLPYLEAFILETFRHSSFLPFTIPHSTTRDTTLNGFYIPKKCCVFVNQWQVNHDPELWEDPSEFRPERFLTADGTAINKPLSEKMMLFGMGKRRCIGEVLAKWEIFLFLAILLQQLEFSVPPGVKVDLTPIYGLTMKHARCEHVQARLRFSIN

[20] = Stability in rat liver microsomes assessed as parent compound remaining at 1 uM incubated for 30 mins; format: ADME, Microsome; settings: read-out: Stability
[21] = biological target: CYP2C19 (Homo sapiens, UniProt P33261); assay: Inhibition of CYP2C19 (unknown origin) assessed as remaining activity at 10 uM relative to control; format: ADME; settings: read-out: Activity
[22] = Stability in mouse liver microsomes assessed as parent compound remaining at 1 uM incubated for 30 mins; format: ADME, Microsome; settings: read-out: Stability
[23] = biological target: Fibroblast growth factor receptor 4 (Homo sapiens, UniProt P22455); assay: Inhibition of wild-type FGFR4 (unknown origin) by radiometric kinase activity assay
[24] = biological target: CYP2D6 (Homo sapiens, UniProt P10635); assay: Inhibition of CYP2D6 (unknown origin) assessed as remaining activity at 10 uM relative to control; format: ADME; settings: read-out: Activity
[25] = Stability in human liver microsomes assessed as parent compound remaining at 1 uM incubated for 30 mins; format: ADME, Microsome; settings: read-out: Stability
[26] = test system: BaF3; assay: Antiproliferative activity against mouse BaF3 cells harboring TEL-FGFR4 V550E mutant assessed as cell growth inhibition by CellTiter-Glo assay; format: functional
[27] = biological target: Fibroblast growth factor receptor 3 (Homo sapiens, UniProt P22607, K650E)
[28] = biological target: Fibroblast growth factor receptor 2 (Homo sapiens, UniProt P21802, N549H)
[29] = test system: AN3-CA; assay: Antitumor activity against human AN3-CA cells xenografted in BALB/c mouse assessed as tumor mean volume at 10 mg/kg, po qd for 15 days measured once every 2 days (reference value: 100%); format: functional; settings: time 15 day
[30] = test system: BaF3; assay: Antitumor activity against mouse BaF3 cells harboring TEL-V555M-FGFR3 mutant xenografted in BALB/c mouse assessed as tumor growth inhibition at 30 mg/kg, ip qd for 15 days measured once every 2 days; format: functional; settings: BaF3, 360 h, time 15 day
[31] = test system: BaF3; assay: Antitumor activity against mouse BaF3 cells harboring TEL-V555M-FGFR3 mutant xenografted in BALB/c mouse assessed as tumor mean volume at 30 mg/kg, po qd for 15 days measured once every 2 days (reference value: 100%); format: functional; settings: time 15 day
[32] = test system: BaF3; assay: Antitumor activity against mouse BaF3 cells harboring TEL-V555M-FGFR3 mutant xenografted in BALB/c mouse assessed as tumor mean volume at 30 mg/kg, ip qd for 15 days measured once every 2 days (reference value: 100%); format: functional; settings: time 15 day
[33] = test system: BaF3; assay: Growth inhibition of mouse BaF3 cells harboring TEL-FGFR3 V555M mutant incubated for 72 hrs by Alamar blue assay; format: functional
[34] = Toxicity in BALB/c mouse xenografted with human AN3-CA cells assessed as body weight loss at 20 to 40 mg/kg, po qd for 15 days measured once every 2 days; format: organism-based; settings: in vivo, 360 h, dose 20-40 mg/kg, time 15 day
[35] = Oral bioavailability in mouse at 10 mg/kg; format: ADME, organism-based; settings: in vivo

Chain of CYP2C19 (P33261 whole entry): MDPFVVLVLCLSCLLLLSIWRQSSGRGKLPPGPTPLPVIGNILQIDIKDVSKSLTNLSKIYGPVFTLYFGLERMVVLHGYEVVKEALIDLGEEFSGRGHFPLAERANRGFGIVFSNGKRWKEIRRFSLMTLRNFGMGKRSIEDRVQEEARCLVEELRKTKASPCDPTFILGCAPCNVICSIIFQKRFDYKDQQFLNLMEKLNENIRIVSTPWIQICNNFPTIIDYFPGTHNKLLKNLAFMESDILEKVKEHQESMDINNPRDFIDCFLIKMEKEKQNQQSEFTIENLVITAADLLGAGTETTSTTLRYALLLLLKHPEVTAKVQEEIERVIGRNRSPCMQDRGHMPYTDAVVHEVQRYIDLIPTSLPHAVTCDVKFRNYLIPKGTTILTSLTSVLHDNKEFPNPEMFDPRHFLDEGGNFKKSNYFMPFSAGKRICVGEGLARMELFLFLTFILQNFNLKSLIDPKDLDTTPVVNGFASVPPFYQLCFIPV
Chain of Fibroblast growth factor receptor 2 (Homo sapiens, UniProt P21802) (P21802 whole entry): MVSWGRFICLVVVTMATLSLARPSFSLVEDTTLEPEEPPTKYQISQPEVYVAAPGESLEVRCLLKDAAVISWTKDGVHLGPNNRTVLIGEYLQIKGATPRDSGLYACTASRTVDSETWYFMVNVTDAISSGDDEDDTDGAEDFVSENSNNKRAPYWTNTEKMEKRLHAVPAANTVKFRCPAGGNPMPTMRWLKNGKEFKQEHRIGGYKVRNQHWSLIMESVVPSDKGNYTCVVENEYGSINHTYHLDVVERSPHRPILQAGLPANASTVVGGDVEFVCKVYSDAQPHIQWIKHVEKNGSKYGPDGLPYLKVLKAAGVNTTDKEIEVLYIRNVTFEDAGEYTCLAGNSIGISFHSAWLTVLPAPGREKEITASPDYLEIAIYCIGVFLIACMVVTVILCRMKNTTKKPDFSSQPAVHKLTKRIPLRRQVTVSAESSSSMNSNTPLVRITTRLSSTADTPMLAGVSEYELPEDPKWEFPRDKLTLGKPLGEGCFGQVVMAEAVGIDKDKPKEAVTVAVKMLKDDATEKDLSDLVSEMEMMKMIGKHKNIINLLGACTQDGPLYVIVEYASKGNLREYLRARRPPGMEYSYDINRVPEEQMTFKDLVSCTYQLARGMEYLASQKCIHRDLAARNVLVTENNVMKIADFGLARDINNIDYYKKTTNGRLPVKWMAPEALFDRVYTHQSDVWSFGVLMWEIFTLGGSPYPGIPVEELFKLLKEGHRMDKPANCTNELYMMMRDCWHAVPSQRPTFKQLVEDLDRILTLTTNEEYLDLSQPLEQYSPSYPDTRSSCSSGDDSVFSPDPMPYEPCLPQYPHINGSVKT
Chain of Fibroblast growth factor receptor 3 (Homo sapiens, UniProt P22607, K650E) (P22607 23-806 K650E limits assumed): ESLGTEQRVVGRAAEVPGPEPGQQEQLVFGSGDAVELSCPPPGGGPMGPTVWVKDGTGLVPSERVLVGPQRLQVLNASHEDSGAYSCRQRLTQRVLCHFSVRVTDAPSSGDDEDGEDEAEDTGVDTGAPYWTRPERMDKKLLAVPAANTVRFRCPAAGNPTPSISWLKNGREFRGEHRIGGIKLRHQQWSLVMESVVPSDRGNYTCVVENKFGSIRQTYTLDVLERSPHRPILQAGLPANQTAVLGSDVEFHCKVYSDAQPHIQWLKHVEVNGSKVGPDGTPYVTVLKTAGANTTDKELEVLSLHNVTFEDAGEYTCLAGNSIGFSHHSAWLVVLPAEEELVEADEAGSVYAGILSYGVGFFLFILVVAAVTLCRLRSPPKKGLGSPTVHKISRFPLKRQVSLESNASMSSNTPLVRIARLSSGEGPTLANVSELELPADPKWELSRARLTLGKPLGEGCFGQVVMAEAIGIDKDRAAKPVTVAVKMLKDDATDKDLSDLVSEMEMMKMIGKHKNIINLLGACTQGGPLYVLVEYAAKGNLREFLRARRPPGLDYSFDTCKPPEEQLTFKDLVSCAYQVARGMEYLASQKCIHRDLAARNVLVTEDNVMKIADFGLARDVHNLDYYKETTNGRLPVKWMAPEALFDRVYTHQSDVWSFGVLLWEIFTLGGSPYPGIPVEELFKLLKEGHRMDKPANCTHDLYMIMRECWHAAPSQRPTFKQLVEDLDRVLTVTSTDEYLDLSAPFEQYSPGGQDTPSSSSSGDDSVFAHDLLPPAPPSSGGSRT
Chain of Fibroblast growth factor receptor 3 (Homo sapiens, UniProt P22607) (P22607 whole entry): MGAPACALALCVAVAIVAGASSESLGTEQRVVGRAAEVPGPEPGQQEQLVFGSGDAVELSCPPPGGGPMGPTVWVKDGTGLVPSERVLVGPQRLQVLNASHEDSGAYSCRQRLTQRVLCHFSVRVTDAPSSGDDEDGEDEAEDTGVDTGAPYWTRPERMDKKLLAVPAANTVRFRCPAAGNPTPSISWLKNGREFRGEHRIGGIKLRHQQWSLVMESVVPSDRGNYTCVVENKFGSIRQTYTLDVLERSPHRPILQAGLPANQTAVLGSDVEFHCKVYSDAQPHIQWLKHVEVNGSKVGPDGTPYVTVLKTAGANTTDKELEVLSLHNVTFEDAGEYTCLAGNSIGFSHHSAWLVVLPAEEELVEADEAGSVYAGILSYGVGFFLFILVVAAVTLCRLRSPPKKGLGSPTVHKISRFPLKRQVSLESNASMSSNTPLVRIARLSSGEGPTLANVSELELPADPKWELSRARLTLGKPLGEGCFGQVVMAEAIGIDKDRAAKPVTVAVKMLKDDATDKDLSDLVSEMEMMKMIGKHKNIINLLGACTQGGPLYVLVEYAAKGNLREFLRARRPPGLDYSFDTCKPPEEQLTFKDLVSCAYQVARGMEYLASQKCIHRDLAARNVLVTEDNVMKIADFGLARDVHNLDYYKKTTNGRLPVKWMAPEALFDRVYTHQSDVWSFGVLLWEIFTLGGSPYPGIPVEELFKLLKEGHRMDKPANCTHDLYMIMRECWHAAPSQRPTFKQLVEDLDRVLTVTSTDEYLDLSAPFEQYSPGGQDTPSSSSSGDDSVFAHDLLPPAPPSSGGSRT
Chain of Fibroblast growth factor receptor 2 (Homo sapiens, UniProt P21802, N549H) (P21802 22-821 N549H limits assumed): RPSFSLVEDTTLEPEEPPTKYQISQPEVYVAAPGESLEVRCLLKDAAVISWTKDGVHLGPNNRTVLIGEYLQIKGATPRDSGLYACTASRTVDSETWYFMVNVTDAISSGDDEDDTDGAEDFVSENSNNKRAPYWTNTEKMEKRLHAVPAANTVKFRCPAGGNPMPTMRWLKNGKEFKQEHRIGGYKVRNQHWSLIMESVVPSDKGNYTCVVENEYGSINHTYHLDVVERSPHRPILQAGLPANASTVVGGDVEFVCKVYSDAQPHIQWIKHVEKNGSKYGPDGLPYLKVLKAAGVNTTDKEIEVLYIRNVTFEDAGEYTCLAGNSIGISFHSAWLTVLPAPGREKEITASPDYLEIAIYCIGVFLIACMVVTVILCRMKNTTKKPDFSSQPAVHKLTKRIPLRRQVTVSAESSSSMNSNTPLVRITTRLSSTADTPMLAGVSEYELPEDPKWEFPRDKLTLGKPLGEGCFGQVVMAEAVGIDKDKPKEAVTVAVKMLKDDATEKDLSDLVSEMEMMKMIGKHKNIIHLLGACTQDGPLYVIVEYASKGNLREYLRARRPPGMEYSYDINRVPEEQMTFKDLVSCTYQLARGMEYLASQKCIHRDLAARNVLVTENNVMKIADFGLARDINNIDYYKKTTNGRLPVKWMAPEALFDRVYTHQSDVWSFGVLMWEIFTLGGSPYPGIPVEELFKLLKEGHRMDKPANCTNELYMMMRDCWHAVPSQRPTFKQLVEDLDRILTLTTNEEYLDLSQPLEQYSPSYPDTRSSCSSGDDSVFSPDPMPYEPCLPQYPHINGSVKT
Chain of Fibroblast growth factor receptor 2 (Homo sapiens), P21802 [N549H] (P21802 whole entry N549H): as the sequence (P21802 whole entry) above, with N549H counted along it
Chain of CYP2D6 (P10635 whole entry): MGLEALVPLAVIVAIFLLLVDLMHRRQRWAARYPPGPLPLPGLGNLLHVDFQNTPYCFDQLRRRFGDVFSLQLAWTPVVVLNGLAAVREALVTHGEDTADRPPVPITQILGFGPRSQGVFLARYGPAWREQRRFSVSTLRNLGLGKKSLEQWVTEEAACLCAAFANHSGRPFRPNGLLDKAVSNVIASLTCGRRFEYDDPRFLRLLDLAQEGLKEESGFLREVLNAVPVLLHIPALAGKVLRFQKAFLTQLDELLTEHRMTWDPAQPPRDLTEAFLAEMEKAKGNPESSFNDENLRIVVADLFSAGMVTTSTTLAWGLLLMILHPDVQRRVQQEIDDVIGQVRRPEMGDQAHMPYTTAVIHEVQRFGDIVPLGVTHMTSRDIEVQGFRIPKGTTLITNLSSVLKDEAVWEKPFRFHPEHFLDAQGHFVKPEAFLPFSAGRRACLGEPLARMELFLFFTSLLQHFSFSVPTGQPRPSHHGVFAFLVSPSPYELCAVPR

SMILES | inhibition [1] [%] | GI50 [2] [µM] | inhibition [4] [%] | GI50 [5] [µM] | IC50 [9] [µM] | inhibition [10] [%] | GI50 [11] [µM] | IC50 [12] [µM] | activity at 10 µM [14] [%] | activity at 10 µM [16] [%] | activity at 10 µM [19] [%] | activity at 10 µM [21] [%] | remaining at 0.5 h, 1 µM [22] [%] | activity at 10 µM [24] [%] | remaining at 0.5 h, 1 µM [25] [%] | GI50 [26] [µM] | GI50 [3] [µM] | GI50 [6] [µM] | GI50 [7] [µM] | GI50 [8] [µM] | further results
COc1ccccc1Nc1ncnc(-c2cccnc2Nc2c(Cl)c(OC)cc(OC)c2Cl)n1 | < 50 | 4.12 | < 50 | > 5 | 0.275 | < 50 | – | – | – | – | – | – | – | – | – | – | > 50 | > 5 | 5.55 | 31.2 | –
COc1cc(N2CCOCC2)ccc1Nc1ncnc(-c2cccnc2Nc2c(Cl)c(OC)cc(OC)c2Cl)n1 | < 50 | > 5 | < 50 | > 5 | 1.55 | < 50 | – | – | – | – | – | – | – | – | – | – | > 50 | > 5 | > 50 | 31.2 | –
COc1cc(OC)c(Cl)c(Nc2ncccc2-c2ncnc(Nc3ccc(N4CCOCC4)nc3OC)n2)c1Cl | < 50 | > 5 | < 50 | > 5 | 1.71 | < 50 | – | – | – | – | – | – | – | – | – | – | > 50 | > 5 | > 50 | 31 | –
Cc1nc2ccc(-n3ncc(C(=O)c4cc5ccccc5[nH]4)c3N)cc2[nH]1 [FGFR INHIBITOR DEBIO 1347] | – | – | – | – | – | – | – | – | – | – | – | – | – | – | – | – | – | – | – | – | GI50 [33]: 8.24 µM
COc1cc(OC)c(Cl)c(Nc2ncccc2-c2ncnc(Nc3cnn(C4CCNCC4)c3)n2)c1Cl | – | 0.01 | – | 1.02 | 0.00098 | – | 3.65 | 0.727 | 89.9 | 44.1 | 72.8 | 51 | 62.1 | > 100 | 62.6 | 2.59 | 0.111 | > 5 | 0.029 | 0.977 | IC50 [13]: 0.0109 µM; Activity [34]: Non-Toxic; IC50 [15]: 0.268 µM; remaining at 0.5 h, 1 µM [17]: 66.9%; IC50 [18]: < 0.0005 µM; remaining at 0.5 h, 1 µM [20]: 65.4%; IC50 [23]: 0.0263 µM; bioavailability [35]: 13.2%; IC50 [27]: < 0.0005 µM; IC50 [28]: 0.00253 µM

The next lines start with results.

inhibition [1] [%] | GI50 [2] [µM] | inhibition [4] [%] | GI50 [5] [µM] | IC50 [9] [µM] | inhibition [10] [%] | GI50 [11] [µM] | IC50 [12] [µM] | activity at 10 µM [14] [%] | activity at 10 µM [16] [%] | activity at 10 µM [19] [%] | activity at 10 µM [21] [%] | remaining at 0.5 h, 1 µM [22] [%] | activity at 10 µM [24] [%] | remaining at 0.5 h, 1 µM [25] [%] | GI50 [26] [µM] | SMILES | GI50 [3] [µM] | GI50 [6] [µM] | GI50 [7] [µM] | GI50 [8] [µM] | further results
– | 0.005 | – | 0.733 | 0.0006 | – | 0.52 | 0.363 | 62.3 | 13.3 | 72.6 | 31.8 | 44.8 | 77.3 | 10.2 | 0.354 | COc1cc(OC)c(Cl)c(Nc2ncccc2-c2ncnc(Nc3ccc(N4C[C@@H](C)N[C@@H](C)C4)cc3)n2)c1Cl | 0.237 | 1.53 | 0.015 | 0.428 | IC50 [13]: 0.0261 µM; IC50 [15]: 0.116 µM; remaining at 0.5 h, 1 µM [17]: 19%; IC50 [18]: < 0.0005 µM; remaining at 0.5 h, 1 µM [20]: 11.7%; IC50 [23]: 0.027 µM; IC50 [27]: < 0.0005 µM; IC50 [28]: 0.00052 µM
– | 0.005 | – | 0.183 | < 0.0005 | – | 1.68 | 0.189 | 79.1 | 17.6 | 75.9 | 44.6 | 11.5 | 81 | 21.8 | 0.749 | COc1cc(OC)c(Cl)c(Nc2ncccc2-c2ncnc(Nc3cnn(C4CCN(C(C)C)CC4)c3)n2)c1Cl | 0.034 | > 5 | 0.021 | 0.547 | IC50 [13]: 0.0048 µM; IC50 [15]: 0.0223 µM; IC50 [18]: < 0.0005 µM; IC50 [23]: 0.0073 µM; IC50 [27]: < 0.0005 µM; IC50 [28]: < 0.0005 µM
– | 0.005 | < 50 | 2.6 | – | – | > 5 | – | 88.4 | 83 | 77.3 | 64.9 | 22.3 | 94.9 | 77 | 4 | CCN1CCN(c2ccc(Nc3cc(N(C)C(=O)Nc4c(Cl)c(OC)cc(OC)c4Cl)ncn3)cc2)CC1 [INFIGRATINIB] | 0.22 | > 5 | 0.039 | 3.35 | Activity [29]: 14.1%; remaining at 0.5 h, 1 µM [17]: 8.1%; inhibition in vivo at 30 mg/kg [30]: 60.2%; remaining at 0.5 h, 1 µM [20]: 10.9%; Activity [31]: 49%; Activity [32]: 44.74%
